US5521173A, “Tricyclic benzazepine vasopressin antagonists” (American Home Products Corporation, priority 1995, dated 1996)

How the values were obtained:
[1] = target: T1, Vasopressin V1 receptor subtype in Human Platelet Membranes (Homo sapiens, UniProt P37288); test: Binding to Vasopressin V1 receptor subtype in Human Platelet Membranes
T1 construct: tissue Hudson Valley Blood Services, Westchester Medical Center, Valhalla, N.Y; host or cells: human platelets (frozen platelet rich plasma)
Description: Radioligand Binding Experiments with Human Platelet Membranes
(a) Platelet Membrane Preparation
Frozen platelet rich plasma (PRP), (Platelet Source: Hudson Valley Blood Services, Westchester Medical Center, Valhalla, N.Y.) are thawed to room temperature. The tubes containing the PRP are centrifuged at 16,000×g for 10 min. at 4° C. and the supernatant fluid discarded. The platelets resuspended in an equal volume of 50.0 mM Tris.HCl, pH 7.5 containing 120 mM NaCl and 20.0 mM EDTA. The suspension is recentrifuged at 16,000× g for 10 min. This washing step is repeated one more time. The wash discarded and the lysed pellets homogenized in low ionic strength buffer of Tris.HCl, 5.0 mM, pH 7.5 containing 5.0 mM EDTA. The homogenate is centrifuged at 39,000× g for 10 min. The resulting pellet is resuspended in Tris.HCl buffer, 70.0 mM, pH 7.5 and recentrifuged at 39,000× g for 10 min. The final pellet is resuspended in 50.0 mM Tris.HCl buffer pH 7.4 containing 120 mM NaCl and 5.0 mM KCl to give 1.0-2.0 mg protein per ml of suspension.
(b) Binding to Vasopressin V1 receptor subtype in Human Platelet Membranes
In wells of a 96 well format microtiter plate, add 100 μl of 50.0 mM Tris.HCl buffer containing 0.2% BSA and a mixture of protease inhibitors (aprotinin, leupeptin etc.). Then add 20 μl of [^3 H]Ligand (Manning or Arg^8 Vasopressin), to give final concentrations ranging from 0.01 to 10.0 nM. Initiate the binding by adding 80.0 μl of platelet suspension (approx. 100 μg protein). Mix all reagents by pipetting the mixture up and down a few times. Non specific binding is measured in the presence of 1.0 µM of unlabeled ligand (Manning or Arg^8 Vasopressin). Let the mixture stand undisturbed at room temperature for ninety (90) min. Upon this time, rapidly filter off the incubate under vacuum suction over GF/B filters, using a Brandel Harvester. Determine the radioactivity caught on the filter disks by the addition of liquid scintillant and counting in a liquid scintillator.

[2] = target: T2, Human V2 Vasopressin Receptor (Homo sapiens, UniProt P30518); test: Binding to Membranes of Mouse Fibroblast Cell Line (LV-2) Transfected with the cDNA Expressing the Human V2 Vasopressin Receptor; conditions: ** LV-2 cell membranes
T2 construct: expressed in transfected cells; host or cells: mouse fibroblast cell line LV-2
T2 sequence (P30518 whole entry): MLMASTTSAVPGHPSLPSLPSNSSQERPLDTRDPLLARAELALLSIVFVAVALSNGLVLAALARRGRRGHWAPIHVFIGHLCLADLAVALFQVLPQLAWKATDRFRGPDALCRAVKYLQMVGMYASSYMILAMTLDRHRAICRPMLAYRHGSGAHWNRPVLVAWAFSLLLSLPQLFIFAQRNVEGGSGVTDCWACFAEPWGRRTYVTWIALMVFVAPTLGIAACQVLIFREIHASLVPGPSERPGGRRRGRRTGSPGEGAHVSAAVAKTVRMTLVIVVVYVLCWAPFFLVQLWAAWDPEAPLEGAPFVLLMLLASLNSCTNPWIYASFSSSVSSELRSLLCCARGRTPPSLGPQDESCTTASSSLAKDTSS
Description: (a) Membrane Preparation Flasks of 175 ml capacity, containing attached cells grown to confluence, are cleared of culture medium by aspiration. […] The content of all flasks is poured into a centrifuge tube and the cells pelleted at 300× g for 15 min. The Hank's based solution is aspirated off and the cells homogenized with a polytron at setting #6 for 10 sec in 10.0 mM Tris.HCl buffer, pH 7.4 containing 0.25M sucrose and 1.0 mM EDTA. The homogenate is centrifuged at 1500× g for 10 min to remove ghost membranes. The supernatant fluid is centrifuged at 100,000× g for 60 min to pellet the receptor protein. […] (b) Receptor Binding […] Non specific binding is assessed in the presence of 1.0 μM of unlabeled ligand, added in 20 μl volume. […] The radioactivity trapped on the filter disk by the ligand-receptor complex is assessed by liquid scintillation counting in a Packard LS Counter, with an efficiency of 65% for tritium. The data are analyzed for IC50 values by the LUNDON-2 program for competition (LUNDON SOFTWARE, Ohio).

[3] = target: T3, oxytocin receptors (Rattus norvegicus, UniProt P70536); test: Oxytocin Receptor Binding; design: species or system rat (female Sprague-Dawley); conditions: for IC50: 1.0 nM [3H]OT
T3 construct: The uteri are dissected out, cleaned of fat and connective tissues; from tissue; host or cells: uteri of DES-treated female Sprague-Dawley rats
T3 sequence (P70536 1-388): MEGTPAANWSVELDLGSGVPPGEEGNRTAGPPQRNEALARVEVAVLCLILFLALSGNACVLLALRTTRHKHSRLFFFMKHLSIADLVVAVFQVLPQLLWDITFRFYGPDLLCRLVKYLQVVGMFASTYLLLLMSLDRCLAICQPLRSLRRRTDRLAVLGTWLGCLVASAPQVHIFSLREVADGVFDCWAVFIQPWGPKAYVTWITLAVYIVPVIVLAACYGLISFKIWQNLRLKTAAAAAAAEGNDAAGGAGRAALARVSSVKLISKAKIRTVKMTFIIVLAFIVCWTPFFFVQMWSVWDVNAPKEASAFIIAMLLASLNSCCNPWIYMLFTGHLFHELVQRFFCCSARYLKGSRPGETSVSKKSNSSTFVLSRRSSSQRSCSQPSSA
Description: Oxytocin Receptor Binding
Female Sprague-Dawley rats weighing approximately 200-250 g are injected intramuscularly (i.m.) with 0.3 mg/kg of body weight of diethylstilbestrol (DES). The rats are sacrificed 18 hours later under pentobarbital anesthesia. The uteri are dissected out, cleaned of fat and connective tissues and rinsed in 50 ml of normal saline. The tissue pooled from six rats is homogenized in 50 ml of […] Tris.HCl, containing 0.5 mM dithiothreitol and 1.0 mM EDTA, adjusted to pH 7.4, using a polytron at setting 6 with three passes of 10 sec each. The homogenate is passed through two (2) layers of cheesecloth and the filtrate centrifuged at 1000× g for 10 min. The clear supernatant is removed and recentrifuged at 165,000× g for 30 min. The resulting pellet containing the oxytocin receptors is resuspended in 50.0 mM Tris.HCl containing 5.0 mM MgCl2 at pH 7.4, to give a protein concentration of 2.5 mg/ml of tissue suspension. This preparation is used in subsequent binding assays with [^3 H]Oxytocin.
Binding of 3,5-[^3 H]Oxytocin ([^3 H]OT) to its receptors is done in microtiter plates using [^3 H]OT, at various concentrations, in an assay buffer of 50.0 mM Tris.HCl, pH 7.4 and containing 5.0 mM MgCl2, and a mixture of protease inhibitors: BSA, 0.1 mg; aprotinin, 1.0 mg; 1,10-phenanthroline, 2.0 mg; […], 10.0 mg; and PMSF, 0.3 mg per 100 ml of buffer solution. Non-specific binding is determined in the presence of 1.0 uM unlabeled OT. The binding reaction is terminated after 60 min., at 22° C., by rapid filtration through glass fiber filters using a Brandel, cell harvester (Biomedical Research and Development Laboratories,Inc., Gaithersburg, Md.). Competition experiments are conducted at equilibrium using 1.0 nM [^3 H]OT and varying the concentration of the displacing agents. The concentrations of agent displacing 50% of [^3 H]OT at its sites (IC50) are calculated by a computer assisted LUNDON-2 program (LUNDON SOFTWARE INC., Ohio, USA).

[4] = test system: Vasopressin V2; test: Vasopressin V2 Antagonist Activity in Conscious Hydrated Rats; assay type: in vivo, rat; conditions: 10 mg/kg orally, AVP 0.4 μg/kg i.p.; for Osmolality: urine
Description: Two to four rats are used for each compound. One hour later, arginine vasopressin (AVP, antidiuretic hormore, ADH) dissolved in peanut oil is administered at 0.4 μg/kg intraperitoneally. Two rats in each test would not receive arginine vasopressin but only the vehicle (peanut oil) to serve as water-loading control. Twenty minutes later each rat is given 30 mL/kg of deionized water orally by gavage and is placed individually in a metabolic cage equipped with a funnel and a graduated glass cylinder to collect urine for four hours. Urine volume is measured and osmolality analyzed by use of a Fiske One-Ten osmometer (Fiske Assoc., Norwood, Mass., USA). Urinary sodium, potassium, and chloride are analyzed by use of ion-specific electrodes in a Beckman E3 (Electrolyte 3) Analyzer. In the following results, […] and decreased osmolality relative to AVP-control indicates activity.

T1 sequence (P37288 whole entry): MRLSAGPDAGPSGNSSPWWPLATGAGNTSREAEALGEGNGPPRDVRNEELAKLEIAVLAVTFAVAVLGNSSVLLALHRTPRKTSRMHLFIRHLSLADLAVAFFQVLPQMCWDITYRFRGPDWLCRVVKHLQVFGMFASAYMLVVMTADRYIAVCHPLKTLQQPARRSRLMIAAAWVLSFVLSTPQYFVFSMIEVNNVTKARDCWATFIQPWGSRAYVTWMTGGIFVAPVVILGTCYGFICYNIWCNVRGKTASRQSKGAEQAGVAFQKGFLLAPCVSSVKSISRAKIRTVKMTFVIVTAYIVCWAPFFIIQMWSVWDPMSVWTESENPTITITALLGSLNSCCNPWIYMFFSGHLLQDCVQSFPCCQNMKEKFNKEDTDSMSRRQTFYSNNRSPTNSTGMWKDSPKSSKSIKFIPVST

Compound	IC50 [1] [nM]	IC50 [2] [nM]	inhibition at 10 µM [3] [%]	IC50 [3] [nM]	Urine Volume [4] [ml/4 hrs]	Osmolality [4] [mOsm/kg]
O=C(c1ccc(-c2cccs2)nc1)N1Cc2cccn2Cc2ccccc21 [Example 22]	960	3600	98	480		
CCCc1ccc(-c2ccc(C(=O)N3Cc4cccn4Cc4ccccc43)cc2)cc1 [Example 21, 10,11-Dihydro-10-[(4'-propyl[1,1'-biphenyl]-4-yl)carbonyl]-5H-pyrrolo[2,1-c][1,4]benzodiazepine]	12	58	68		4.5	1347
O=C(c1ccc(-c2cccs2)cc1)N1Cc2cccn2Cc2ccccc21 [drawing 73]	13	510				
CN(C)Cc1ccc2n1Cc1ccccc1N(C(=O)c1ccc(-c3cccs3)cc1)C2 [Example 6, 10,11-Dihydro-3-[(dimethylamino)methyl]-10-[4-(2-thienyl)benzoyl]-5H-pyrrolo[2,1-c][1,4]benzodiazepine]	63	15000	100	330		

The next lines start with results.

IC50 [1] [nM]	IC50 [2] [nM]	inhibition at 10 µM [3] [%]	IC50 [3] [nM]	Compound	Urine Volume [4] [ml/4 hrs]	Osmolality [4] [mOsm/kg]
88	2000			Cc1ccccc1-c1ccc(C(=O)N2Cc3cccn3Cc3ccccc32)cc1 [Example 5, 10,11-Dihydro-10-[4-(2-methylphenyl)benzoyl]-5H-pyrrolo[2,1-c][1,4]benzodiazepine]	7.8	992
64	96	100	49 ± 3	O=C(c1ccc(-c2ccccc2[N+](=O)[O-])cc1)N1Cc2cccn2Cc2ccccc21 [Example 2, 10,11-Dihydro-10-[4-(2-nitrophenyl)benzoyl]-5H-pyrrolo[2,1-c][1,4]benzodiazepine]	5.5	1257
